Data published in US20230183237A1, “COMPETITIVE AND NONCOMPETITIVE INHIBITORS OF THE MUSCARINIC ACETYLCHOLINE RECEPTOR M5” (Vanderbilt University, priority 2020, published 2023).

Target: T1, hM5 (Homo sapiens, UniProt P08912)
T1 construct: expressed in transfected cells
T1 sequence (P08912 1-532): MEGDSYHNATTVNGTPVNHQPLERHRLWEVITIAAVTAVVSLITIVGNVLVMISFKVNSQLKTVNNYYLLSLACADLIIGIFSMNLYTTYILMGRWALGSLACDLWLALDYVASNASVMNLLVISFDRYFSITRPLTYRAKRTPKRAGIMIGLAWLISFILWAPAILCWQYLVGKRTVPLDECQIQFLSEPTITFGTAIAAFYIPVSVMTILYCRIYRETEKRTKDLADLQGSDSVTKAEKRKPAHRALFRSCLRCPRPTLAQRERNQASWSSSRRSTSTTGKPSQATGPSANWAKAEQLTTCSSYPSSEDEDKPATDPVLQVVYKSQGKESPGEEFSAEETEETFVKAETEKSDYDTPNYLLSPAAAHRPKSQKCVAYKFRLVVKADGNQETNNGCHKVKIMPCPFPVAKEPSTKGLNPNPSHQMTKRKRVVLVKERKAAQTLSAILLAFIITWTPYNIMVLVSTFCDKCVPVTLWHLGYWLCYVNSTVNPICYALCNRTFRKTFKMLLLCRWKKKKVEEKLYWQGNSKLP
Experiment: Calcium mobilization concentration-response (IC50 vs EC80 acetylcholine), CHO hM5
Format: cell-based
Conditions: CELL LINE hM5; calcium mobilization, EC80 acetylcholine addition; read-out: IC50
Experimental: Initial, single point (10 μM) compound characterization was performed in stable Chinese Hamster Ovary (CHO) cell lines constitutively expressing human M5 receptors. These were plated at 15,000 cells per 20 μL per well in Greiner 384-well black-walled, TC-treated, clear-bottomed plates (Fisher) in Ham's F12 medium supplemented with 10% FBS and 20 mM HEPES. Cells were incubated overnight at 37° C. under 5% CO2. The following day, medium was exchanged with assay buffer (Hank's Balanced Salt Solution supplemented with 20 mM HEPES and 2.5 mM Probenecid, pH 7.4) leaving 20 μL of assay buffer in each well. […] The cells were then incubated 50 minutes at 37° C. under 5% CO2. The assay buffer plus dye was then exchanged with fresh assay buffer leaving a volume of 20 μL in each well. Test compounds were diluted into assay buffer to a 2X (20 μM) concentration in 0.2% dimethylsulfoxide (DMSO) in columns 3-22 with matching DMSO concentration in columns 1, 2, 23, and […]; compounds were added to the assay for a final concentration of 10 μM and a final DMSO concentration of 0.1%.
Either an FDSS (Hamamatsu) or Panoptic (WaveFront Biosciences) kinetic imaging plate reader was used for assay execution and measurement of calcium flux. After establishing baseline fluorescence, test compounds (20 μL) were added to the cells using the reader's integrated pipettor and allowed to equilibrate for 140 seconds before addition of the […] concentration of acetylcholine (10 μL) along with vehicle in selected DMSO-only wells in the outer two columns . […] The raw fluorescence data from each well was normalized to the corresponding initial fluorescence reading (static ratio). The maximum fluorescence value following each addition was determined and the minimum value within that same timeframe was subtracted for each well then normalized to the average of the ECffiax maximum-minimum response, providing a % AChmax value for each addition for each well. The single point values represent mean values determined within the ECsu addition timeframe obtained from at least three independent determinations performed in triplicate or greater (error bars represent +/−SEM) unless otherwise specified.
CHO cells stably expressing hM1, hM2/Gqi5, hM3, hM4/Gqi5, hM5, rM1/Gqi5, rM3, rM4/Gqi5, or rM5 were plated in the manner described above. […] FDSS protocols were carried out as described above; the static ratio was calculated and the minimum response subtracted from the maximum response within the timeframe of each addition. This max-min response was then normalized to the maximum acetylcholine response. Calculation of IC50 was performed using the percent maximum acetylcholine response for the EC80 addition through the Vortex and Studies modules of the Dotmatics data management software. Results are stored in the Dotrnatics database and an audit trail of any changes to their analysis is generated. Data shown represent mean values obtained from at least three independent determinations performed in triplicate or greater (error bars represent±SEM) unless otherwise specified.

| Structure (SMILES) | IC50 [µM] |
| --- | --- |
| Cc1cc2ncnn2cc1C1=CCN(S(=O)(=O)c2ccc3c(c2)CCO3)CC1 [Compound 35, 6-(1-((2,3-dihydrobenzofuran-5-yl)sulfonyl)-1,2,3,6-tetrahydropyridin-4-yl)-7-methyl-[1,2,4]triazolo[1,5-a]pyridine] | 0.518 |
| Cc1cc2nccn2nc1N1CCN(S(=O)(=O)c2ccc3c(c2)CCO3)CC1 [Compound 36, 6-(4-((2,3-Dihydrobenzofuran-5-yl)sulfonyl)piperazin-1-yl)-7-methylimidazo[1,2-b]pyridazine] | 4 |
| Cc1cc2nccn2nc1C1CCN(S(=O)(=O)c2ccc(Cl)s2)CC1 [Compound 37, 6-(1-((5-chlorothiophen-2-yl)sulfonyl)piperidin-4-yl)-7-methylimidazo[1,2-b]pyridazine] | > 10 |
| Cc1cc2nccn2nc1C1CCN(S(=O)(=O)c2ccc3ncsc3c2)CC1 [Compound 38, 6-((4-(7-methylimidazo[1,2-b]pyridazin-6-yl)piperidin-1-yl)sulfonyl)benzo[d]thiazole] | 4.2 |
| Cc1cc2nccn2nc1C1CCN(S(=O)(=O)c2ccc3ncccc3c2)CC1 [Compound 39, 6-((4-(7-methylimidazo[1,2-b]pyridazin-6-yl)piperidin-1-yl)sulfonyl)quinoline] | > 10 |
| Cc1cc2nccn2nc1C1CCN(S(=O)(=O)c2ccc3c(c2)OCO3)CC1 [Compound 40, 6-(1-(benzo[d][1,3]dioxol-5-ylsulfonyl)piperidin-4-yl)-7-methylimidazo[1,2-b]pyridazine] | > 10 |
| COc1ccc(S(=O)(=O)N2CCC(c3nn4ccnc4cc3C)CC2)c(C)c1 [Compound 41, 6-(1-((4-methoxy-2-methylphenyl)sulfonyl)piperidin-4-yl)-7-methylimidazo[1,2-b]pyridazine] | > 10 |
| COc1ccc(S(=O)(=O)N2CCC(c3nn4ccnc4cc3C)CC2)cn1 [Compound 42, 6-(1-((6-methoxypyridin-3-yl)sulfonyl)piperidin-4-yl)-7-methylimidazo[1,2-b]pyridazine] | > 10 |
| Cc1cc2nccn2nc1C1CCN(S(=O)(=O)c2ccc3c(c2)CCCO3)CC1 [Compound 43, 6-(1-(chroman-6-ylsulfonyl)piperidin-4-yl)-7-methylimidazo[1,2-b]pyridazine] | 3.6 |
| O=S(=O)(c1ccc2c(c1)CCO2)N1CCC(c2nnc(NCc3ccccc3)cc2C(F)(F)F)CC1 [Compound 44] | 5.6 |
| Cc1c(C2CCN(S(=O)(=O)c3ccc4c(c3)CCO4)CC2)nn2ccnc2c1C [Compound 45, 6-(1-((2,3-dihydrobenzofuran-5-yl)sulfonyl)piperidin-4-yl)-7,8-dimethylimidazo[1,2-b]pyridazine] | > 10 |
| Cc1cc2ncnn2cc1C1=CCN(S(=O)(=O)c2cc3c(cc2F)OCC3)CC1 [Compound 46, 6-(1-((6-fluoro-2,3-dihydrobenzofuran-5-yl)sulfonyl)-1,2,3,6-tetrahydropyridin-4-yl)-7-methyl-[1,2,4]triazolo[1,5-a]pyridine] | 2.7 |
| Cc1cc2ncnn2cc1C1CCN(S(=O)(=O)c2cc3c(cc2F)OCC3)CC1 [Compound 47, 6-(1-((6-fluoro-2,3-dihydrobenzofuran-5-yl)sulfonyl)piperidin-4-yl)-7-methyl-[1,2,4]triazolo[1,5-a]pyridine] | 0.441 |
| Cc1cc2ncnn2cc1C1=CCN(S(=O)(=O)c2ccc3c(c2)CC(C)O3)CC1 (centres unmarked) [Compound 49, 7-methyl-6-(1-((2-methyl-2,3-dihydrobenzofuran-5-yl)sulfonyl)-1,2,3,6-tetrahydropyridin-4-yl)-[1,2,4]triazolo[1,5-a]pyridine] | > 10 |
| Cc1cc2nncn2cc1C1CCN(S(=O)(=O)c2ccc3c(c2)CCO3)CC1 [Compound 50, 6-(1-((2,3-dihydrobenzofuran-5-yl)sulfonyl)piperidin-4-yl)-7-methyl-[1,2,4]triazolo[4,3-a]pyridine] | > 10 |
| Cc1cc2nncn2cc1C1CCN(S(=O)(=O)c2cc3c(cc2F)OCC3)CC1 [Compound 51, 6-(1-((6-fluoro-2,3-dihydrobenzofuran-5-yl)sulfonyl)piperidin-4-yl)-7-methyl-[1,2,4]triazolo[4,3-a]pyridine] | > 10 |
| Cc1cc2nccn2nc1C1CCN(S(=O)(=O)c2cc3c(cc2F)OCC3)CC1 [Compound 52, 6-(1-((6-fluoro-2,3-dihydrobenzofuran-5-yl)sulfonyl)piperidin-4-yl)-7-methylimidazo[1,2-b]pyridazine] | 5.5 |
| Cc1cc2nccn2nc1C1CCN(S(=O)(=O)c2cccnc2)CC1 [Compound 53, 7-methyl-6-(1-(pyridin-3-ylsulfonyl)piperidin-4-yl)imidazo[1,2-b]pyridazine] | > 10 |
| Cc1cc(S(=O)(=O)N2CCC(c3nn4ccnc4cc3C)CC2)cnc1Cl [Compound 54, 6-(1-((6-chloro-5-methylpyridin-3-yl)sulfonyl)piperidin-4-yl)-7-methylimidazo[1,2-b]pyridazine] | > 10 |
| Cc1cc2nccn2nc1C1CCN(S(=O)(=O)c2cn(C)nc2C)CC1 [Compound 55, 6-(1-((1,3-dimethyl-1H-pyrazol-4-yl)sulfonyl)piperidin-4-yl)-7-methylimidazo[1,2-b]pyridazine] | 5.6 |
| Cc1cc2ncnn2cc1C1CCN(S(=O)(=O)c2cnc(Cl)c(C)c2)CC1 [Compound 57, 6-(1-((6-chloro-5-methylpyridin-3-yl)sulfonyl)piperidin-4-yl)-7-methyl-[1,2,4]triazolo[1,5-a]pyridine] | 1.4 |
| O=S(=O)(c1ccc2c(c1)CCO2)N1CC[C@@H](c2cn(-c3ccc4scnc4c3)nn2)C1 [Compound 59, (R)-5-(4-(1-((2,3-Dihydrobenzofuran-5-yl)sulfonyl)pyrrolidin-3-yl)-1H-1,2,3-triazol-1-yl)benzo[d]thiazole] | > 10 |
| O=S(=O)(c1ccc2c(c1)CCO2)N1CCC(c2ccc3ncnn3c2)CC1 [Compound 60, 6-(1-((2,3-dihydrobenzofuran-5-yl)sulfonyl)piperidin-4-yl)-[1,2,4]triazolo[1,5-a]pyridine] | > 10 |
| O=S(=O)(c1cc2c(cc1F)OCC2)N1CCC(c2ccc3ncnn3c2)CC1 [Compound 61, 6-(1-((6-fluoro-2,3-dihydrobenzofuran-5-yl)sulfonyl)piperidin-4-yl)-[1,2,4]triazolo[1,5-a]pyridine] | > 10 |
| O=S(=O)(c1ccc2ncsc2c1)N1CCC(c2ccc3ncnn3c2)CC1 [Compound 62, 6-((4-([1,2,4]triazolo[1,5-a]pyridin-6-yl)piperidin-1-yl)sulfonyl)benzo[d]thiazole] | > 10 |
| Cc1nn(C)cc1S(=O)(=O)N1CCC(c2ccc3ncnn3c2)CC1 [Compound 63, 6-(1-((1,3-dimethyl-1H-pyrazol-4-yl)sulfonyl)piperidin-4-yl)-[1,2,4]triazolo[1,5-a]pyridine] | > 10 |
| Cc1cc2ncnn2cc1C1=CCN(S(=O)(=O)c2ccc3c(c2)C(C)(C)CO3)CC1 [Compound 64, 6-(1-((3,3-dimethyl-2,3-dihydrobenzofuran-5-yl)sulfonyl)-1,2,3,6-tetrahydropyridin-4-yl)-7-methyl-[1,2,4]triazolo[1,5-a]pyridine] | > 10 |
| Cc1cc2ncnn2cc1C1=CCN(S(=O)(=O)c2ccc3c(c2)C(C)CO3)CC1 (centres unmarked) [Compound 65, 7-Methyl-6-(1-((3-methyl-2,3-dihydrobenzofuran-5-yl)sulfonyl)-1,2,3,6-tetrahydropyridin-4-yl)[1,2,4]triazolo[1,5-a]pyridine] | 0.384 |
| Cc1cc2nccn2cc1C1CCN(S(=O)(=O)c2ccc3c(c2)CCO3)CC1 [Compound 66, 6-(1-((2,3-dihydrobenzofuran-5-yl)sulfonyl)piperidin-4-yl)-7-methylimidazo[1,2-a]pyridine] | 1.3 |
